In patent US9403839B2, “Pyran-spirocyclic piperidine amides as modulators of ion channels” (Vertex Pharmaceuticals Incorporated, priority 2012, dated 2016):

Target: human NaV subtype, like NaV 1.7 (Homo sapiens, UniProt Q15858)
Test: E-VIPR optical membrane potential assay with electrical stimulation
Assay type: cell-based
Settings: one or more sodium channels; assay and NaV subtype not specified for Table 3; read-out: IC50 Binned Activity Data
Description: Assays for Detecting and Measuring NaV Inhibition Properties of Compound E-VIPR Optical Membrane Potential Assay Method with Electrical Stimulation
Sodium channels are voltage-dependent proteins that can be activated by inducing membrane voltage changes by applying electric fields. The electrical stimulation instrument and methods of use are described in Ion Channel Assay Methods PCT/US01/21652, herein incorporated by reference and are referred to as E-VIPR. The instrument comprises a microtiter plate handler, an optical system for exciting the coumarin dye while simultaneously recording the coumarin and oxonol emissions, a waveform generator, a current- or voltage-controlled amplifier, and a device for inserting electrodes in well. Under integrated computer control, this instrument passes user-programmed electrical stimulus protocols to cells within the wells of the microtiter plate.
24 hours before the assay on E-VIPR, HEK cells expressing human NaV subtype, like NaV 1.7, are seeded in 384-well poly-lysine coated plates at 15,000-20,000 cells per well. Other subtypes are performed in an analogous mode in a cell line expressing the NaV of interest. HEK cells are grown in media (exact composition is specific to each cell type and NaV subtype) supplemented with 10% FBS (Fetal Bovine Serum, qualified; GibcoBRL #16140-071) and 1% Pen-Strep (Penicillin-Streptomycin; GibcoBRL #15140-122). Cells are grown in vented cap flasks, in 90% humidity and 10% CO2, to 100% confluence. They are usually split by trypsinization 1:10 or 1:20, depending on scheduling needs, and grown for 2-3 days before the next split.
100 mg/mL Pluronic F-127 (Sigma #P2443), in dry DMSO
Compound Plates: 384-well round bottom plate, e.g. Corning 384-well Polypropylene Round Bottom #3656
Cell Plates: 384-well tissue culture treated plate, e.g. Greiner #781091-1B
Bath1 buffer. Glucose 10 mM (1.8 g/L), Magnesium Chloride (Anhydrous), 1 mM (0.095 g/L), Calcium Chloride, 2 mM (0.222 g/L), HEPES 10 mM (2.38 g/L), Potassium Chloride, 4.5 mM (0.335 g/L), Sodium Chloride 160 mM (9.35 g/L).
Hexyl Dye Solution: Bath1 Buffer+0.5% β-cyclodextrin (make this prior to use, Sigma #C4767), 8 μM CC2-DMPE+2.5 μM DiSBAC6(3). To make the solution Add volume of 10% Pluronic F127 stock equal to volumes of CC2-DMPE+DiSBAC6(3). The order of preparation is first mix Pluronic and CC2-DMPE, then add DiSBAC6(3) while vortexing, then add Bath1+β-Cyclodextrin.
1) Pre-spot compounds (in neat DMSO) into compound plates. Vehicle control (neat DMSO), the positive control (20 mM DMSO stock tetracaine, 125 μM final in assay) and test compounds are added to each well at 160× desired final concentration in neat DMSO. Final compound plate volume will be 80 μL (80-fold intermediate dilution from 1 μL DMSO spot; 160-fold final dilution after transfer to cell plate). Final DMSO concentration for all wells in assay is 0.625%.
2) Prepare Hexyl Dye Solution.
3) Prepare cell plates. On the day of the assay, medium is aspirated and cells are washed three times with 100 μL of Bath1 Solution, maintaining 25 μL residual volume in each well.
4) Dispense 25 μL per well of Hexyl Dye Solution into cell plates. Incubate for 20-35 minutes at room temp or ambient conditions.
5) Dispense 80 μL per well of Bath1 into compound plates. Acid Yellow-17 (1 mM) is added and Potassium Chloride can be altered from 4.5 to 20 mM depending on the NaV subtype and assay sensitivity.
6) Wash cell plates three times with 100 μL per well of Bath1, leaving 25 of residual volume. Then transfer 25 uL per well from Compound Plates to Cell Plates. Incubate for 20-35 minutes at room temp/ambient condition
7) Read Plate on E-VIPR. Use the current-controlled amplifier to deliver stimulation wave pulses for typically 9 seconds and a scan rate of 400 Hz. A pre-stimulus recording is performed for 0.5 seconds to obtain the un-stimulated intensities baseline. […]

Sequence of human NaV subtype, like NaV 1.7 (Q15858 whole entry): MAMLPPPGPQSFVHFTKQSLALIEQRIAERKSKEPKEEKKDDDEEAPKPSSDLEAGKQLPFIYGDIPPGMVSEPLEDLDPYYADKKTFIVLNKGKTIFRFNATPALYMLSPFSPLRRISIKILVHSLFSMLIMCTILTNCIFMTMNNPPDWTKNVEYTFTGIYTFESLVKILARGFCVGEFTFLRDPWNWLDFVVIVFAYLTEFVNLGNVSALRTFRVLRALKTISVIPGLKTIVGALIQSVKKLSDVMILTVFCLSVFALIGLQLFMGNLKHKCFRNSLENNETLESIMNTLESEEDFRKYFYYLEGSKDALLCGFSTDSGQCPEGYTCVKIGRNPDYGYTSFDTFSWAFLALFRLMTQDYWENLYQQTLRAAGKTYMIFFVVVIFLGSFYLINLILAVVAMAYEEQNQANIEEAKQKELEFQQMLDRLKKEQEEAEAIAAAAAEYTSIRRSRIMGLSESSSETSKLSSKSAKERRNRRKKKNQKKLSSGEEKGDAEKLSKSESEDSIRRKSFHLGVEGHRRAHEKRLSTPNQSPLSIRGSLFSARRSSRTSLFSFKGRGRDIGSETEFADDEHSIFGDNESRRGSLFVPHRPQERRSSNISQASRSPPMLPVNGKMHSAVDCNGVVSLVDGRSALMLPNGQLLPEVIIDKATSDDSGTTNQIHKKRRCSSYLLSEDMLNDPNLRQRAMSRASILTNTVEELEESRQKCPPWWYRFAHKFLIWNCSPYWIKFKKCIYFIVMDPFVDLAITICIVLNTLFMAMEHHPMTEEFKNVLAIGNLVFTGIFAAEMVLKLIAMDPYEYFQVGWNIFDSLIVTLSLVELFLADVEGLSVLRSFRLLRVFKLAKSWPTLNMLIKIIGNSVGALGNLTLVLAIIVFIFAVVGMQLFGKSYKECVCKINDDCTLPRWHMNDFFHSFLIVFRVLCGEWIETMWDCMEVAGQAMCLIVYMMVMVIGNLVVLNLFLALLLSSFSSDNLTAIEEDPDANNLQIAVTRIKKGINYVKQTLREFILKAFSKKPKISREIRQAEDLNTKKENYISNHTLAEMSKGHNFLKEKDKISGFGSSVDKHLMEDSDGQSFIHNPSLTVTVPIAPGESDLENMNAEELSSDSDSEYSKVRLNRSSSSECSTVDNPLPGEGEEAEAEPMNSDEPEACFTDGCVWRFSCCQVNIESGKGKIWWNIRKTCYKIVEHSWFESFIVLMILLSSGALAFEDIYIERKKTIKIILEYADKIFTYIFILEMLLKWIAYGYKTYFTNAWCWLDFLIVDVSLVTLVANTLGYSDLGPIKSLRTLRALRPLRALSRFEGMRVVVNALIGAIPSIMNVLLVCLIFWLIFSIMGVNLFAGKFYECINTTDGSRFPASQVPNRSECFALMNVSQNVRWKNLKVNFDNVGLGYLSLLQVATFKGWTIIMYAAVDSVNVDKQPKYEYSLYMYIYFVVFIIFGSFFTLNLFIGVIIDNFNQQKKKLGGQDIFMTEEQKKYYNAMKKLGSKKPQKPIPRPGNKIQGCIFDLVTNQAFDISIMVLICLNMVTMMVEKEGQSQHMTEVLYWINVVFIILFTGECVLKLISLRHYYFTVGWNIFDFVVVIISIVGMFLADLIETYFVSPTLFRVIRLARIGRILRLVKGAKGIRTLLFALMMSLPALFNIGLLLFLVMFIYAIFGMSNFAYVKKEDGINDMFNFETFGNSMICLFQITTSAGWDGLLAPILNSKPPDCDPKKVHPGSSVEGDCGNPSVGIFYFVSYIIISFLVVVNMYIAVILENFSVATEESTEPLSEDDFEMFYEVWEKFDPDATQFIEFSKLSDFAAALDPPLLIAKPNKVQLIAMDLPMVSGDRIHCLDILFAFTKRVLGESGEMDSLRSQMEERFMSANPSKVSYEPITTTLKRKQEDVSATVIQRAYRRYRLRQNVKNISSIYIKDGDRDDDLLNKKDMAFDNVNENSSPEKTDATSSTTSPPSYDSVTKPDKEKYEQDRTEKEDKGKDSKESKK

SMILES | IC50 [nM]
CCOc1ncc(Cl)cc1C(=O)N1CCC2(CC1)CC(OCC)CC(c1ccccc1)O2 (stereo not drawn) [Compound 68] | 2000 to 5000
CCOC1CC(c2ccccc2)OC2(CCN(C(=O)c3ccc(O[C@@H](C)CC)c(OC)c3)CC2)C1 (stereo partly drawn) [Compound 139] | ≤ 2000
CCOC1CC(c2ccccc2)OC2(CCN(C(=O)c3ccc(OC(C)C)c(Cl)c3)CC2)C1 (stereo not drawn) [Compound 171] | ≤ 2000
CCOC1CC(c2cncs2)OC2(CCN(C(=O)c3ccc(OC(C)C)c(C)c3)CC2)C1 (stereo not drawn) [Compound 18] | ≤ 2000
CCOC1CC(c2ccccc2)OC2(CCN(C(=O)c3cc(-c4ccc(C)cc4)on3)CC2)C1 (stereo not drawn) [Compound 53] | 2000 to 5000
CCOC1CC(c2cccnc2)OC2(CCN(C(=O)c3ccc(OCCC(C)C)c(OC)c3)CC2)C1 (stereo not drawn) [Compound 39] | ≤ 2000
CCOC1CC(c2ccccc2)OC2(CCN(C(=O)c3ccc(C#N)c(C)n3)CC2)C1 (stereo not drawn) [Compound 50] | > 5000
CCOC1CC(c2ccccc2)OC2(CCN(C(=O)c3c[nH]c4ncccc34)CC2)C1 (stereo not drawn) [Compound 89] | ≤ 2000
CCOC1CC(CC)OC2(CCN(C(=O)c3ccc(OC(C)C)c(C)c3)CC2)C1 (stereo not drawn) [Compound 194] | 2000 to 5000
CCOC1CC(c2ccccc2)OC2(CCN(C(=O)c3ccc(N4CCOCC4)cc3)CC2)C1 (stereo not drawn) [Compound 93] | ≤ 2000
CCOC1CC(c2cccnc2)OC2(CCN(C(=O)c3ccc(C(C)(C)C)c(OC)c3)CC2)C1 (stereo not drawn) [Compound 37] | ≤ 2000
CCOC1CC(c2ccccc2)OC2(CCN(C(=O)c3ccc(N4CCCC4)nc3)CC2)C1 (stereo not drawn) [Compound 70] | 2000 to 5000
CCOC1CC(c2ccccc2)OC2(CCN(C(=O)c3cnc4ccccc4c3)CC2)C1 (stereo not drawn) [Compound 95] | > 5000
CCOC1CC(c2ccccc2)OC2(CCN(C(=O)c3ccc(COCC(F)(F)F)cc3)CC2)C1 (stereo not drawn) [Compound 46] | ≤ 2000
CCOC1CC(c2ccccc2)OC2(CCN(C(=O)c3cc(C)c(OC(C)C)c(C)c3)CC2)C1 (stereo not drawn) [Compound 29] | ≤ 2000
CCOC1CC(c2cccnc2)OC2(CCN(C(=O)c3ccc(OC(C)C)c(C)n3)CC2)C1 (stereo not drawn) [Compound 38] | 2000 to 5000
CCOC1CC(c2ccccc2)OC2(CCN(C(=O)c3ccc(F)c(F)c3OC)CC2)C1 (stereo not drawn) [Compound 19] | ≤ 2000
CCOC1CC(c2ccccc2)OC2(CCN(C(=O)c3cccnc3N3CCCCC3)CC2)C1 (stereo not drawn) [Compound 64] | ≤ 2000
CCOC1CC(c2ccccc2)OC2(CCN(C(=O)c3ccc(OC)c(OC(F)F)c3)CC2)C1 (stereo not drawn) [Compound 62] | ≤ 2000
CCOC1CC(c2ccccc2)OC2(CCN(C(=O)c3ccc(C4(O)CCC4)cc3)CC2)C1 (stereo not drawn) [Compound 176] | ≤ 2000
CCOC1CC(c2ccccc2)OC2(CCN(C(=O)c3cccnc3NC(C)C)CC2)C1 (stereo not drawn) [Compound 75] | ≤ 2000
CCOC1CC(c2ccccc2)OC2(CCN(C(=O)c3ccc(OC(F)F)c(OC)c3)CC2)C1 (stereo not drawn) [Compound 135] | ≤ 2000
CCOC1CC(c2ccccc2)OC2(CCN(C(=O)c3ccc(OC(C)C)c(C#N)c3)CC2)C1 (stereo not drawn) [Compound 127] | ≤ 2000
CCCOC1CC(c2cncs2)OC2(CCN(C(=O)c3ccc(OC(C)C)c(C)c3)CC2)C1 (stereo not drawn) [Compound 8] | ≤ 2000
CCOC1CC(c2ccccc2)OC2(CCN(C(=O)c3cccc(C)n3)CC2)C1 (stereo not drawn) [Compound 122] | > 5000
CCOC1CC(c2ccccc2)OC2(CCN(C(=O)c3ccc(OC(C)(C)C)c(OC)c3)CC2)C1 (stereo not drawn) [Compound 137] | ≤ 2000
CCOC1CC(c2ccccc2)OC2(CCN(C(=O)c3ccc(C)cc3F)CC2)C1 (stereo not drawn) [Compound 97] | ≤ 2000
